In publication PMC12799407, “Differential RELA and GR recruitment to the BIRC3/BIRC2 locus: Molecular insight as to combinatorial regulation by proinflammatory cytokines and glucocorticoid” (Molecular Pharmacology, 2025):

Assays:
[1] = test system: R2 reporter; assay: R2 luciferase reporter (BIRC3/BIRC2 locus) stably transfected in A549 cells; assay type: cell-based, human; conditions: for EC50: A549, 6 h; for EC50 / EMax (Fold ± SE): 6 h; for pA2 (Schild analysis): Org34517 1 μM
Protocol: Data were assumed to be normally distributed and, unless otherwise indicated, are presented as means ± SD with scatterplots showing individual values. […] Multiple comparisons were made using one-way ANOVA with Tukey’s or Dunnett’s post hoc tests, as appropriate. Comparisons between 2 groups were performed by 2-tailed, paired Student’s t test. The number of independent experiments (N) is indicated in each graph and, being exploratory, sample sizes were not prespecified. […] Heat maps were generated using the R package “pheatmap.” Concentration-response relationships were fitted using the 4-parameter model that assumed symmetric variance or using the Gaddum-Schild model of competitive antagonism, as described previously.[43] Variance in pEC50, EMax, or pA2 are provided by Prism as mean ±SE, whereas all curves are plotted as means ±SD (but without scatterplots). Because all analyses were exploratory and were not designed to test prespecified statistical null hypotheses, stated P values should be viewed as being descriptive rather than as hypothesis testing.

[2] = test system: R5 reporter; assay: R5 luciferase reporter stably transfected in A549 cells; assay type: cell-based, human; conditions: R5 reporter; for EC50: Homo sapiens, A549, 6 h; for EC50 / EMax (% of 1 μM dexamethasone ± SE): 6 h
Protocol: (§2) Data were assumed to be normally distributed and, unless otherwise indicated, are presented as means ± SD with scatterplots showing individual values. With the exception of pEC50 values, numerical values in tables and text are provided to one decimal place, or where appropriate 2 significant figures of accuracy. […] Multiple comparisons were made using one-way ANOVA with Tukey’s or Dunnett’s post hoc tests, as appropriate. Comparisons between 2 groups were performed by 2-tailed, paired Student’s t test. The number of independent experiments (N) is indicated in each graph and, being exploratory, sample sizes were not prespecified. […] GraphPad Prism software (version 11; Dotmatics) and/or the R package “ggplot2” was used for graph plotting and statistical analyses. Heat maps were generated using the R package “pheatmap.” Concentration-response relationships were fitted using the 4-parameter model that assumed symmetric variance or using the Gaddum-Schild model of competitive antagonism, as described previously.[43] Variance in pEC50, EMax, or pA2 are provided by Prism as mean ±SE, whereas all curves are plotted as means ±SD (but without scatterplots).

[3] = test system: R8 reporter; assay: R8 luciferase reporter stably transfected in A549 cells; conditions: for EMax (Fold ± SE): 6 h
Protocol: as §2

[4] = test system: GR recruitment to FKBP5; assay: ChIP-qPCR of GR recruitment to FKBP5 in A549 cells; assay type: cell-based, human; conditions: budesonide 300 nM, 1 hour
Protocol: After cell treatments, formaldehyde (PI28906, Thermo Fisher Scientific) was added to a final concentration of 1% for 10 minutes. […] Following cytoplasmic and then nuclear lysis, lysates were sonicated with 30 high-power bursts in a 30 seconds on-off cycle at 4 °C using a Bioruptor (Diagenode). Antibodies: GR, GR-356,[36] RELA (NF-κB p65, D14E12, #8242, Cell Signaling Technologies); RNA polymerase 2 (RNAP2) (Rpb1 NTD D8L4Y, #14958, Cell Signaling Technologies) used for ChIP were preincubated with protein G magnetic Dynabeads (10004D, Thermo Fisher Scientific) overnight at 4 °C and beads were washed as previously described. Nuclear lysates were then incubated with the antibody-coated beads overnight prior to extensive washing. Following reversal of crosslinks, DNA was purified with a ChIP DNA Clean & Concentrator kit (D5205, Zymo Research). Fast SYBR Green Master Mix (Thermo Fisher Scientific) was used in standard quantitative polymerase chain reaction (qPCR) reactions to detect DNA regions of interest. […] Relative occupancy at each region was calculated as ΔΔ threshold cycle (CT) after normalization to the geometric mean of the threshold cycle values for 3 negative control regions (Gene symbols: OLIG3, MYOD1, and MYOG).

[5] = test system: BIRC3 mRNA; assay: qPCR of BIRC3 mRNA in A549 cells; assay type: cell-based, human; conditions: for repression of IL-1β-induced BIRC3 mRNA: at 30 μM, IL-1β 2 h
Protocol: (§1) Following treatments, total RNA was extracted and 500 ng used for cDNA synthesis according to standard procedures.[34] After 1:5 dilution, cDNA (2.5 μL) was analyzed by qPCR (StepOnePlus, Applied […] or QuantStudio3, Thermo Fisher Scientific) with Fast SYBR Green Master Mix (4385618, Thermo Fisher Scientific). Amplification conditions and primers specific for BIRC3, BIRC2, and glyceraldehyde-3-phosphate dehydrogenase mRNAs were as described.[9] In each case, relative cDNA concentrations were obtained from standard curves generated by serial dilution of a stimulated cDNA sample that was analyzed in parallel with the experimental samples. Primer specificity was assessed by melt curve analysis where a single peak in the change of fluorescence with temperature was taken to indicate specificity.

[6] = test system: BIRC2 mRNA; assay: qPCR of BIRC2 mRNA in A549 cells; assay type: cell-based, human; conditions: concentration series; IL-1β 2 h (Fig. 6C)
Protocol: as §1

[7] = test system: NF-κB reporter; set-up: method as in PMID 17322026, PMID 37863662, PMID 38941070; conditions: read-out: EC50, inhibition of IL-1β-induced NF-κB reporter activity; cited from earlier work
[8] = test system: R4 reporter; assay: R4 luciferase reporter stably transfected in A549 cells; assay type: cell-based, human
Protocol: as §2

## CCCC1O[C@@H]2C[C@H]3[C@@H]4CCC5=CC(=O)C=C[C@]5(C)[C@H]4[C@@H](O)C[C@]3(C)[C@]2(C(=O)CO)O1 (stereo partly shown) [Budesonide, budesonide]
[1]; Homo sapiens, R2 reporter, glucocorticoid + IL-1β (1 ng/mL)
  EC50: 5.89 nM
[1]; Homo sapiens, R2 reporter, glucocorticoid, naïve
  EC50: 3.47 nM
[1]; R2 reporter, glucocorticoid + IL-1β (1 ng/mL)
  EMax (Fold ± SE): 3.3 Fold
[1]; R2 reporter, glucocorticoid concentration-response, naïve
  EMax (Fold ± SE): 2.4 Fold
[2]; glucocorticoid + IL-1β (1 ng/mL)
  EC50: 12.3 nM
[2]; glucocorticoid, naïve
  EC50: 6.61 nM
[2]; glucocorticoid + IL-1β (1 ng/mL), % of 1 μM dexamethasone
  EMax (% of 1 μM dexamethasone ± SE): 9.3%
[2]; glucocorticoid, naïve, expressed as % of 1 μM dexamethasone
  EMax (% of 1 μM dexamethasone ± SE): 92.2%
[3]; R8 reporter, glucocorticoid + IL-1β (1 ng/mL)
  EMax (Fold ± SE): 16.2 Fold
[3]; R8 reporter, glucocorticoid, naïve
  EMax (Fold ± SE): 2.2 Fold
[4]
  recruitment of GR to FKBP5, fold: 240 ± 150 fold

## O=C(Nc1cc(Cl)cc2c1[nH]c1cnccc12)c1cccnc1 [PS-1145, N-(6-chloro-9h-pyrido[3,4-b]indol-8-yl)-3-pyridinecarboxamide]
[5]; Homo sapiens, A549, 2 h, IL-1β-induced BIRC3 mRNA, 2 h
  EC50: 2750 nM
[5]
  repression of IL-1β-induced BIRC3 mRNA: ~54%
[1]; R2 reporter, inhibitor 30 μM (Fig. 6A)
  inhibition of IL-1β-plus-dexamethasone-induced reporter activity: unaffected
[1]; R2 reporter, inhibitor 30 μM, dexamethasone 1 μM (Fig. 6A)
  reduction in reporter activity induced by dexamethasone: unaffected
[6]
  effect on IL-1β-induced BIRC2 mRNA expression: no effect on IL-1β-induced expression until a concentration of 100 μM
[7]
  EC50: 1000 to 2000 nM
[3]; Homo sapiens, A549, read-out: inhibition of IL-1β-plus-dexamethasone-induced R8 reporter activity
  inhibition at 30 µM: > 60%
[8]; inhibitor 30 μM, dexamethasone 1 μM
  reduction of dexamethasone-induced R4 reporter activity: 24.5%

## CC#C[C@]1(O)CCC2C3CCC4=CC(=O)CCC4=C3[C@@H](c3ccc4c(c3)OCO4)C[C@@]21C (stereo partly shown) [Org34517]
[1]; R2 reporter, antagonism of dexamethasone + IL-1β
  pA2 (Schild analysis): 7.99
[1]; R2 reporter, antagonism of dexamethasone, consistent with antagonism at GR
  pA2 (Schild analysis): 7.71
[2]; Org34517 1 μM, dexamethasone 1 μM
  dexamethasone-induced luciferase activity in the presence of Org34517, fold: 1.7 fold
[2]; antagonism of dexamethasone, Org34517 1 μM
  pA2 (Schild analysis): 8.33 ±0.14
[3]; R8 reporter, Org34517 1 μM
  IL-1β-plus-dexamethasone-induced reporter activity in the presence of Org34517, fold: 6.3 fold
[3]; R8 reporter, Org34517 1 μM, dexamethasone 1 μM
  dexamethasone-induced reporter activity in the presence of Org34517, fold: 1.4 fold
[3]; R8 reporter, antagonism of dexamethasone + IL-1β, Org34517 1 μM
  pA2 (Schild analysis): 8.14 ± 0.11
[3]; R8 reporter, antagonism of dexamethasone, Org34517 1 μM
  pA2 (Schild analysis): 8.14 ± 0.11
[8]; Org34517 1 μM, P ≤ .05 and .01
  effect on induced R4 reporter activity: reduced

## NC(=O)Nc1sc(-c2ccc(F)cc2)cc1C(N)=O [TPCA-1, 2-[(aminocarbonyl)amino]-5-(4-fluorophenyl)-3-thiophenecarboxamide]
[5]
  repression of IL-1β-induced BIRC3 mRNA: near complete inhibition
[1]; Homo sapiens, A549, read-out: inhibition of IL-1β-plus-dexamethasone-induced reporter activity
  inhibition at 30 µM: 56%
[6]
  effect on IL-1β-induced BIRC2 mRNA expression: below 10 μM, TPCA-1 was without effect
[7]
  EC50: 2000 nM
[3]; inhibitor 30 μM
  inhibition of IL-1β-plus-dexamethasone-induced R8 reporter activity: complete inhibition
[8]; Homo sapiens, A549, read-out: EC50, inhibition of IL-1β-induced R4 reporter activity
  EC50: 2600 nM
